Results from patent US6410561B1, “Amide derivatives and nociceptin antagonists” (Japan Tobacco Inc., priority 1998, dated 2002).
Structures can show the parent of a compound that is named as a salt. Where two headings read alike, the source gives them in different places.

What was measured:
[1] = target: T1, ORL-1 receptor (Homo sapiens, UniProt P41146); experiment: ORL1 receptor binding assay ([3H]nociceptin); settings: for Ki: calculated from IC50 and Kd of [3H]nociceptin; for IC50: membrane of human ORL-1 expression cells, [3H]nociceptin 0.5 nM
T1 construct: expressed in transfected cells
T1 sequence (P41146 whole entry): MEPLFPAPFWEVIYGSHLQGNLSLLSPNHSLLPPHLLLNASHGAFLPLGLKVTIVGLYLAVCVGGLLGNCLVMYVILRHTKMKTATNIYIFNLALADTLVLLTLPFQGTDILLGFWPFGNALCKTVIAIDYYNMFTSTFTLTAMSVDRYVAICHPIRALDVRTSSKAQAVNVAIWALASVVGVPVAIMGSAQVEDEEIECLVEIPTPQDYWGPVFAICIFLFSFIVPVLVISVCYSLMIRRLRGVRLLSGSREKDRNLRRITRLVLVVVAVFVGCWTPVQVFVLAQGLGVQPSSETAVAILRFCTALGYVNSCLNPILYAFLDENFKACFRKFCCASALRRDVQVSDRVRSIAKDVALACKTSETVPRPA
Protocol: ORL1 Receptor Binding Assay
A cell membrane suspension obtained from human ORL-1 expression cells was adjusted with Tris buffer [50 mM Tris, 2 mM EDTA, 0.1 mM (p-Amidinophenyl)methanesulfonyl Fluoride Hydrochloride (p-APMSF), 2 mg/ml BSA] to membrane protein amount of about 25 μg/ml (2.5 μg/well). This was mixed with [^3H]nociceptin (diluted with Tris buffer to a final concentration of 0.5 nM) and test compound (diluted with Tris buffer to a final concentration of 10 nM-10 μM), and the mixture was incubated at room temperature for 60 min. The membrane was recovered on a G/F-B filter (Packard, Unifilter 96GF/B) using a cell harvester and the reaction was stopped. After washing 3 times, the filter was dried at 42° C. for 1 hr. A scintillation solution (Packard, microscint-20) was added and the radioactivity (Packard, Top count A9912V) was assayed.
(§1) The nonspecific binding was the binding in the presence of 1 μM nociceptin and the difference between the total binding and nonspecific binding was taken as the specific binding. IC50 was calculated from inhibition of specific binding at each concentration of the compound, and Ki value of the test compound was calculated from this value and Kd value of [^3H]nociceptin.

[2] = target: T2, μ receptor (Rattus norvegicus, UniProt P33535); experiment: μ receptor binding assay ([3H]DAMGO); settings: for Ki: calculated from IC50 and Kd of [3H]DAMGO; for IC50: rat cerebrum membrane, [3H]DAMGO 1 nM
T2 construct: Rat cerebrum membrane standard sample; from tissue; host or cells: rat cerebrum membranes
T2 sequence (P33535 whole entry): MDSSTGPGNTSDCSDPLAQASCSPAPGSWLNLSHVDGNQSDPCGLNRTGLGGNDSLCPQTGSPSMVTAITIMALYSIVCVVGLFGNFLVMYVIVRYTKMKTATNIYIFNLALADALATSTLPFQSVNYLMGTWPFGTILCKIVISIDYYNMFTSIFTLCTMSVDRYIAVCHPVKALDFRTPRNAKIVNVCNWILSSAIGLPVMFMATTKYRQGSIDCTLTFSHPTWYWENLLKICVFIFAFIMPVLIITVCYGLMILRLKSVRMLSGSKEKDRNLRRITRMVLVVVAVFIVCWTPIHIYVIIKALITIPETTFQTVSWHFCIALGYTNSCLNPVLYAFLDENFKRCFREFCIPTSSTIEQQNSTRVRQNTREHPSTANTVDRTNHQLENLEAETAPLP
Protocol: Rat cerebrum membrane standard sample (final concentration 0.755 mg·protein/ml), [^3H]DAMGO (Try-D-Ala-Gly-NMe-Phe-Gly-ol) [diluted with Tris buffer (50 mM Tris-HCl, 0.1 mM p-APMSF, 2 mg/ml BSA (pH=7.4)) to a final concentration of 1 nM] and test compound (diluted with Tris buffer to a final concentration of 10 nM-10 μM) were mixed, and the mixture was incubated at room temperature for 90 min. The membrane was recovered on a G/F-B filter (same as above) using a cell harvester and the reaction was stopped. After washing 3 times, the filter was dried at 42° C. for 1 hr. A scintillation solution (same as above) was added and the radioactivity (same as above) was assayed.
as §1, with “10” for “1”, “naloxone” for “nociceptin”, “[^3H]DAMGO.” for “[^3H]nociceptin.”

[3] = test system: allodynia model; experiment: Allodynia test (intrathecal nociceptin, tactile stimulation); type: in vivo, Mice; settings: Mus musculus, read-out: Allodynia M.E.D. (minimum effective dose)
Protocol: Mice (Crj, ICR, 4-week-old, male) were intrathecally administered with nociceptin (50 pg/5 μl) without anesthesia. For 20 min after administration and at 5 min intervals, an area from lateral region to tail of the mice was rubbed with a brush and the response of the mice was observed. The evaluation followed the criteria of 0; no change, 1; run or cry upon tactile stimulation, and 2; cry loud or dash away upon tactile stimulation. The test compound was suspended in a 0.5% MC solution and orally administered 60 min before nociceptin administration. The significant difference of the score of each administration group at 20 min after nociceptin administration from the group administered with solvent was analyzed with Mann-Whitny U-test.

[4] = mice, oral, 60 min before nociceptin 50 pg i.t., score at 20 min

SMILES: Cc1cc(N)c2cc(NC(=O)c3ccccc3CN(C(=O)OC(C)(C)C)c3ccc(Cl)cc3)ccc2n1.Cl
- melting point: 208 °C

SMILES: Cc1cc(N)c2cc(NC(=O)c3sccc3COc3ccc(Cl)cc3)ccc2n1.Cl
- melting point: 219 °C

SMILES: CNc1cc(C)nc2ccc(NC(=O)c3ccccc3COc3ccccc3)cc12.Cl
- melting point: 284 °C

SMILES: CCc1ccc(OCc2ccccc2C(=O)Nc2ccc3nccc(N)c3c2)cc1.Cl
- melting point: 219 °C

SMILES: Cl.Nc1ccnc2ccc(NC(=O)c3ccccc3COc3ccc(Cl)cc3)cc12
- melting point: 231 °C

SMILES: Cl.Nc1c2c(nc3ccc(NC(=O)c4ccccc4COc4ccc(Cl)cc4)cc13)CCCC2
- melting point: 283 °C

SMILES: CSc1nc2ccc(NC(=O)c3ccccc3COc3ccccc3)cc2[nH]1.Cl
- melting point: 191 °C

SMILES: Cl.Nc1cccc2ccc(NC(=O)c3ccccc3COc3ccccc3)cc12
- melting point: 237 °C

SMILES: Cc1ccc(OCc2ccccc2C(=O)Nc2ccc3nc(CO)cc(N)c3c2)cc1.Cl
- melting point: 201 °C

SMILES: Cl.Nc1ccc(NC(=O)c2ccccc2COc2ccccc2)cc1
- melting point: 241 °C

SMILES: COc1cccc(OCc2ccccc2C(=O)Nc2ccc3nc(C)cc(N)c3c2)c1.Cl
- melting point: 224 °C

SMILES: Cc1cc(N)c2cc(NC(=O)c3ccccc3COc3ccc(-c4ccccc4)cc3)ccc2n1.Cl
- melting point: 268 °C

SMILES: Cc1cc(N)c2cc(NC(=O)c3ccccc3COc3ccc(C(C)C)cc3)ccc2n1.Cl
- melting point: 256 °C

SMILES: Cc1cc(N)c2cc(NC(=O)c3ccccc3COc3cccc(F)c3)ccc2n1.Cl
- melting point: 255 °C

SMILES: Cc1cc(N)c2cc(NC(=O)c3ccccc3COc3cccc(C(F)(F)F)c3)ccc2n1.Cl
- melting point: 253 °C

SMILES: COC(=O)c1ccc(OCc2ccccc2C(=O)Nc2ccc3nc(C)cc(N)c3c2)cc1.Cl
- melting point: 262 °C

SMILES: Cc1cc(N)c2cc(NC(=O)c3ccccc3COc3cccnc3)ccc2n1.Cl
- melting point: 207 °C

SMILES: Cc1cc(N)c2cc(NC(=O)c3ccccc3COc3ccc(C(=O)O)cc3)ccc2n1.Cl
- melting point: 225 °C

SMILES: Cc1cc(N)c2cc(NC(=O)c3ccccc3COc3cccc(C#N)c3)ccc2n1.Cl
- melting point: 195 °C

SMILES: CC(=O)OCc1ccc(OCc2ccccc2C(=O)Nc2ccc3nc(C)cc(N)c3c2)cc1.Cl
- melting point: 258 °C

SMILES: Cc1cc(N)c2cc(NC(=O)c3ccccc3COc3ccc(CO)cc3)ccc2n1.Cl
- melting point: 273 °C

SMILES: COc1ccc(OCc2ccccc2C(=O)Nc2ccc3nc(C)cc(N)c3c2)cc1OC.Cl
- melting point: 270 °C

SMILES: Cc1cc(N)c2cc(NC(=O)c3ccccc3COc3ccc4c(c3)CCCC4)ccc2n1.Cl
- melting point: 176 °C

SMILES: Cc1cc(N)c2cc(NC(=O)c3cccc(CCc4ccccc4)c3)ccc2n1.Cl
- melting point: > 300 °C

SMILES: Cc1cc(N)c2cc(NC(=O)c3ccccc3CCCCc3ccccc3)ccc2n1.Cl
- melting point: 233 °C

SMILES: Cc1cc(N)c2cc(NC(=O)c3ccccc3CCCCCCc3ccccc3)ccc2n1.Cl
- melting point: 213 °C

SMILES: Cc1ccc(CCc2ccccc2C(=O)Nc2ccc3nc(C)cc(N)c3c2)cc1.Cl
- melting point: > 300 °C

SMILES: Cc1cc(N)c2cc(NC(=O)c3ccccc3OCc3ccccc3)ccc2n1.Cl
- melting point: 240 °C

SMILES: Cc1cc(N)c2cc(NC(=O)c3ccccc3COc3ccc4occc4c3)ccc2n1.Cl
- melting point: 269 °C

SMILES: COCc1ccccc1C(=O)Nc1ccc2nc(C)cc(N)c2c1.Cl
- melting point: 244 °C

SMILES: Cc1cc(N)c2cc(NC(=O)c3ccccc3CSc3ccc(Cl)cc3)ccc2n1.Cl
- melting point: 216 °C

SMILES: Cc1cc(N)c2cc(NC(=O)c3ccccc3C[S+]([O-])c3ccc(Cl)cc3)ccc2n1.Cl (stereo not shown)
- melting point: 221 °C

SMILES: Cc1cc(N)c2cc(NC(=O)c3ccccc3COc3ccc(N(C)C)cc3)ccc2n1 (as salt: hydrochloride)
- melting point: 233 °C

SMILES: Cc1cc(N)c2cc(NC(=O)c3ccccc3COc3ccc(N)cc3)ccc2n1 (as salt: hydrochloride) [Example 23, N-(4-amino-2-methyl-6-quinolyl)-2-[(4-aminophenoxy)methyl]benzamide dihydrochloride]
- melting point: 237 °C

SMILES: COc1cc(OC)cc(OCc2ccccc2C(=O)Nc2ccc3nc(C)cc(N)c3c2)c1.Cl [Example 10, N-(4-amino-2-methyl-6-quinolyl)-2-[(3,5-dimethoxyphenoxy)methyl]benzamide hydrochloride]
- Ki [1]: 53 nM
- IC50 [1]: 1020 nM
- Ki [2]: 324 nM
- IC50 [2]: 860 nM
- minimal effective dose [3, 4]: 3 mg/kg

SMILES: Cc1cc(N)c2cc(NC(=O)c3ccccc3COc3ccc(F)cc3)ccc2n1.Cl [Example 25, N-(4-amino-2-methyl-6-quinolyl)-2-[(4-fluorophenoxy)methyl]benzamide hydrochloride]
- Ki [1]: 8 nM
- IC50 [1]: 150 nM
- Ki [2]: 464 nM
- IC50 [2]: 1180 nM
- minimal effective dose [3, 4]: > 0.3 mg/kg

SMILES: Cc1cc(N)c2cc(NC(=O)c3ccccc3COc3ccccc3Cl)ccc2n1.Cl [Example 27, N-(4-amino-2-methyl-6-quinolyl)-2-[(2-chlorophenoxy)methyl]benzamide hydrochloride]
- Ki [2]: 414 nM
- IC50 [2]: 1060 nM
- minimal effective dose ([3]; po): 0.3 mg/kg
- melting point: 165 °C

SMILES: Cc1cc(N)c2cc(NC(=O)c3ccccc3COc3ccc([N+](=O)[O-])cc3)ccc2n1.Cl [Example 32, N-(4-amino-2-methyl-6-quinolyl)-2-[(4-nitrophenoxy)methyl]benzamide hydrochloride]
- Ki [2]: 227 nM
- IC50 [2]: 580 nM
- minimal effective dose ([3]; po): > 0.3 mg/kg
- melting point: 238 °C

SMILES: Cc1cc(N)c2cc(NC(=O)c3ccccc3COc3ccc(I)cc3)ccc2n1 [Example 38, N-(4-amino-2-methyl-6-quinolyl)-2-[(4-iodophenoxy)methyl]benzamide]
- Ki [1]: 5 nM
- IC50 [1]: 90 nM
- Ki [2]: 1020 nM
- IC50 [2]: 2670 nM
- minimal effective dose [3, 4]: > 0.3 mg/kg

SMILES: CCc1cc(N)c2cc(NC(=O)c3ccccc3COc3ccc(Cl)cc3Cl)ccc2n1 [Example 51]
- Ki [1]: 8 nM
- IC50 [1]: 170 nM
- Ki [2]: 525 nM
- IC50 [2]: 1400 nM

SMILES: Cc1cc(N)c2cc(NC(=O)c3ccccc3CCCOc3ccccc3)ccc2n1.Cl [Example 61]
- Ki [1]: 63 nM
- IC50 [1]: 1220 nM
- Ki [2]: 2010 nM
- IC50 [2]: 5350 nM
- minimal effective dose [3, 4]: 3 mg/kg

SMILES: Cc1cc(N)c2cc(NC(=O)c3ccccc3CCOc3ccccc3)ccc2n1.Cl [Example 62]
- Ki [1]: 125 nM
- IC50 [1]: 2360 nM
- Ki [2]: 783 nM
- IC50 [2]: 2000 nM
- minimal effective dose [3, 4]: > 3 mg/kg

SMILES: Cc1cc(N)c2cc(NC(=O)c3ccccc3CCCCOc3ccccc3)ccc2n1.Cl [Example 63]
- Ki [1]: 54 nM
- IC50 [1]: 1030 nM
- Ki [2]: 545 nM
- IC50 [2]: 1420 nM
- minimal effective dose [3, 4]: > 3 mg/kg

SMILES: Cc1cc(N)c2cc(NC(=O)c3ccccc3CCCCCCCOc3ccccc3)ccc2n1.Cl [Example 65]
- Ki [1]: 64 nM
- IC50 [1]: 1160 nM
- minimal effective dose [3, 4]: > 3 mg/kg

SMILES: Cc1cc(N)c2cc(NC(=O)c3ccccc3CCCCCCOc3ccccc3)ccc2n1.Cl [Example 66]
- Ki [1]: 108 nM
- IC50 [1]: 2000 nM
- minimal effective dose [3, 4]: > 3 mg/kg
- melting point: 210 °C

SMILES: Cc1cc(N)c2cc(NC(=O)c3ccccc3CCc3ccccc3)ccc2n1 [Example 71]
- Ki [1]: 89 nM
- IC50 [1]: 1770 nM
- minimal effective dose [3, 4]: 30 mg/kg

SMILES: Cc1cc(N)c2cc(NC(=O)c3ccccc3CN(C)c3ccc(Cl)cc3)ccc2n1 [Example 101]
- melting point: 214 °C

SMILES: Cc1cc(N)c2cc(NC(=O)c3ccccc3CNc3ccc(Cl)cc3)ccc2n1 [Example 102]
- melting point: 274 °C

SMILES: Cc1cc(N)c2cc(NC(=O)[C@@H]3CCCN3CCOc3ccc(Cl)cc3)ccc2n1 [Example 113]
- melting point: 216 °C

SMILES: Cc1cc(N)c2cc(NC(=O)[C@@H]3CCCN3CCCOc3ccc(Cl)cc3)ccc2n1 [Example 114]
- melting point: 211 °C

SMILES: Cc1cc(N)c2cc(NC(=O)[C@H]3CCCN3CCOc3ccc(Cl)cc3)ccc2n1 [Example 115]
- melting point: 253 °C
